The values that follow come from US20240109852A1, “Ferroptosis-HDAC Inhibitor Hybrid Anticancer Agents” (The University of Toledo, priority 2022, published 2024).

Like-named read-outs stand apart in the source and are kept apart here. Bounds are passed on as bounds.

In data set [1] the test system is hTERT-immortalized RPE cells (retinal pigment epithelial cells). As to the kind of experiment: Cell viability assay (methylene blue staining), RPE normal cells. The data set is classed as cell-based, human.
Procedure: (§2) Cell viability was assessed using methylene blue staining: cells were plated at 5000/well in 96 well plates (n=3) respectively and treated the next day. Three days after treatment cells were fixed/stained in methylene blue saturated in 50% ethanol for 30 min at RT. Plates were washed with excess water to wash off extra dye.
The test system of the next data set is NCI-H522 cells. As to the kind of experiment: Time-lapse microscopy of cell death in NCI-H522 cells. The data set is classed as cell-based, human. The conditions noted are these: for time from initiation of ferroptosis until most/all cells were dead: CETZOLE-1 20 μM (most cells), HY-1 5 μM (all cells); for time of initiation of ferroptosis after treatment: CETZOLE-1 20 μM, HY-1 5 μM. The protocol: For time lapse imaging, NCI-H522 cells were plated at ˜70% density and left overnight to adhere and pre-equilibrate to 10% CO2. The next day cells were treated with DMSO or inhibitors, and the flask was maintained sealed. Flasks were placed on a 37° C. heated stage on an inverted microscope. Images were captured every 12 min and for a total of 300 images using a ×40 microscope objective and an Olympus C740 digital camera controlled by AmScope software. Image analysis was done using Image J. For the Kaplan-Maier graphs at least 100 cells were counted and the event of cell death was measured on a time frame of either 1 h or 0.2 h.

Data set [2] has as its system PC-12 (pheochromocytoma) cells. As to the kind of experiment: MTT cytotoxicity on undifferentiated and differentiated PC-12 cells. The data set is classed as cell-based. The note with it: both non-differentiated and NGF-differentiated states. The protocol: Pheochromocytoma (PC-12) cells were grown on poly-D-lysine coated plates and cultured in DMEM/F12 medium (HyClone, Thermo Scientific) containing 5% fetal bovine serum, 5% horse serum, and 1% penicillin-streptomycin. Cells were maintained in a 37° C. incubator with a 5% CO2 atmosphere. Cells were seeded at a density of 15,000 cells per well in 96 well plates for 36 hr before treatment with the test compounds. The MTT assay was performed after 24 hr of treatment.
Pheochromocytoma (PC-12) cells were seeded on poly-D-lysine coated plates containing neuron differentiation medium (100 ng nerve growth factor, DMEM/F12, 5% fetal bovine serum, 5% horse serum, and 1% penicillin-streptomycin) and grown for 5 days to differentiate to neurons. Cells were maintained in a 37° C. incubator with a 5% CO2 atmosphere. Cells were trypsinized, and seeded at a density of 15,000 cells/well in 96 well plates with neuron differentiation medium for 36 hr before treatment with the test compounds. The MTT assay was performed after 24 hr of treatment.

For data set [3], the system named is SH-SY5Y cell line (human neuroblastoma). As to the kind of experiment: MTT cell viability assay on SH-SY5Y neuronal cells. The data set is classed as cell-based. The note with it: for effect on neuronal cells (neurotoxicity), SH-SY5Y viability: 0.5×IC50, 1×IC50, 2×IC50 of the corresponding control on H522. On the procedure: Human neuroblastoma cells (SH-SY5Y) were grown on poly-D-lysine coated plates and cultured in DMEM/F12 medium (HyClone, Thermo Scientific) containing 10% fetal bovine serum and 1% penicillin-streptomycin. Cells were maintained in a 37° C. incubator with a 5% CO2 atmosphere. Cells were seeded at a density of 15,000 cells in 96 well plates for 36 hr before treatment of drugs. […] G4102) according to the manufacturer's instructions. Cells were treated with amide series analogs for 24 hrs. Briefly, the cells were incubated with MTT reagent for 2 h at 37° C. incubator. Then, the solubilization/stop solution was added to solubilize the formazan products, incubated for 1 hr, and absorbance at 570 was measured using micro-plate reader (SynergyH1, BioTek, USA). DMSO was used a vehicle control. The experimental data represent the means±SD (*P<0.05) of triplicates from three separate experiments. The statistical significance was determined by one-way ANOVA and significant differences P<0.05, P<0.01, P<0.001, and P<0.0001 are symbolized as *, **, ***, and ****, respectively.

Data set [4] has as its system NCI-60 human tumor cell lines. As to the kind of experiment: NCI-60 five dose assay, whole panel. The data set is classed as cell-based.
The test system of data set [5] is DU-145 (prostate cancer cell line). As to the kind of experiment: NCI-60 five dose assay, DU-145. The class given is cell-based. The note with it: Homo sapiens.
The subject of data set [6] is NCI-H23 (NSC lung cancer cell line). As to the kind of experiment: NCI-60 five dose assay, NCI-H23. The data set is classed as cell-based. The conditions noted are these: Homo sapiens.
In data set [7] the test system is PC-3 (prostate cancer cell line). As to the kind of experiment: NCI-60 five dose assay, PC-3. The note with it: Homo sapiens, read-out: GI50, PC-3. The class given is cell-based.
Data set [8] relates to WI-38 cells (normal human lung fibroblasts). As to the kind of experiment: Cell viability assay (methylene blue staining), WI-38 normal cells. The class given is cell-based. The note with it: concentration of therapeutic relevance (2 μM), mesenchymal system.
Procedure: as §2
For data set [9], the system named is NCI-60 human tumor cell lines. As to the kind of experiment: NCI-60 one dose assay, whole panel. The data set is classed as cell-based. The conditions noted are these: compared to other hybrids, HDAC controls and SAHA.
Data set [10] concerns IGROV-1 (ovarian cancer cell line). As to the kind of experiment: NCI-60 five dose assay, IGROV-1. The class given is cell-based. The note with it: Homo sapiens.
The test system of data set [11] is RPMI-8226 (leukemia cell line). As to the kind of experiment: NCI-60 five dose assay, RPMI-8226. The data set is classed as cell-based. The note with it: Homo sapiens, RPMI-8226, read-out: GI50, RPMI-8226.
The subject of data set [12] is LOXIMVI (melanoma cell line). As to the kind of experiment: NCI-60 five dose assay, LOXIMVI. The class given is cell-based. The note with it: Homo sapiens, LOX IMVI, read-out: GI50, LOXIMVI.
In data set [13] the test system is SF-539 cell line (CNS cancer). As to the kind of experiment: NCI-60 five dose assay, SF-539. The conditions noted are these: Homo sapiens. The data set is classed as cell-based.
The subject of data set [14] is lipid peroxides in NCI-H522 cells. As to the kind of experiment: C11-BODIPY lipid peroxidation assay (flow cytometry). The class given is cell-based, human. The conditions noted are these: NCI-H522, 10 μM, within 6 hours of treatment. The protocol:
NCI-H522 cells (˜70% density) were plated on 7 cm dishes and let overnight to adhere. […] After 6 h, cells were washed with 1×PBS and collected by trypsinization and centrifugation. The cells were washed once with 1×PBS and resuspended in PBS containing 2% FBS. Cells were analyzed using a BD LSR Fortessa FACScanner and FlowJo software. For each sample 20×10^3 cells were analyzed.

Data set [15] concerns NCI-H522 human lung cancer cells. As to the kind of experiment: Cell viability assay (methylene blue staining), NCI-H522. The class given is cell-based. The conditions noted are these: NCI-H522, 72 h, read-out: IC50 ± SD (n = 3) on NCI-H522 cell line.
Procedure: as §2
Data set [16] concerns HCT116 human colorectal carcinoma cells. As to the kind of experiment: Cell viability assay (methylene blue staining), HCT-116. The data set is classed as cell-based. The note with it: HCT-116, 72 h, read-out: IC50 ± SD (n = 3) on HCT-116 cell line.
Procedure: as §2
Data set [17] relates to acetyl tubulin (class II, HDAC-6 substrate). As to the kind of experiment: Western blot, acetyl tubulin in NCI-H522 cells. The class given is cell-based, human. The note with it: NCI-H522, concentration of 5 μM. An excerpt:
(§1) Bound antibodies were detected using enhanced chemiluminescence (Biorad).

In data set [18] the test system is acetyl-H3 (K9) (histones, HDAC class I substrate). As to the kind of experiment: Western blot, acetyl-H3 (K9) in NCI-H522 cells. The data set is classed as cell-based, human. The conditions noted are these: NCI-H522, concentration of 5 μM.
Source text: as §1
A general note: A western blot detects proteins with antibodies after separation by electrophoresis.

The subject of data set [19] is HS578 (breast cancer cell line). As to the kind of experiment: NCI-60 five dose assay, HS578. The conditions noted are these: Homo sapiens. The class given is cell-based.
Data set [20] deals with DU-145 cells (prostate cancer). The note with it: one dose; SAHA data from the public data base of NCI; cited from earlier work.
The test system of data set [21] is NCI-H23 cell line (NSC-Lung cancer). The conditions noted are these: one dose; SAHA data from the public data base of NCI; cited from earlier work.

Usually IC50 stands for the concentration that gives 50% inhibition. As for `C#Cc1nc(C2=C(C)C(O)CC2)cs1` (centres unmarked) [CETZOLE-1, reference compound], in data set [1] (normal RPE epithelial cells, FBS media (FIGS. 11A, 11C), read-out: IC50 on RPE (selectivity study)), the IC50 is above 30000 nM. Besides, in the data set on NCI-H522 cells, the “time from initiation of ferroptosis until most/all cells were dead” value is at most 8 h and the “time of initiation of ferroptosis after treatment” value is recorded as “approximately 12 hours”.

With `C#Cc1nc(C(=O)NCCCCCCC(=O)OC)cs1` [FC-1, Methyl 7-(2-ethynylthiazole-4-carboxamido)heptanoate], the “sensitivity of differentiated and undifferentiated PC-12 cells” value in [2] is on record as “resistant”. The “effect on neuronal cells (neurotoxicity), SH-SY5Y viability” value (shortened to “effect on neuronal cells (neurotoxicity)”) in [3] is given as “significant neurotoxicity”.

The term GI50 denotes the concentration at which growth is held to half of that of the control. For `O=C(CCCCCCNC(=O)c1csc(Br)n1)NO` [HC-1, 2-Bromo-N-(7-(hydroxyamino)-7-oxoheptyl)thiazole-4-carboxamide], in data set [3], the “effect on neuronal cells (neurotoxicity)” value is “very mild toxicity”. In data set [4] (read-out: average GI50), the GI50 was 1510 nM.

For the compound `C#Cc1nc(C(=O)NCCCCCCC(=O)NO)cs1` [HY-1, 2-Ethynyl-N-(7-(hydroxyamino)-7-oxoheptyl)thiazole-4-carboxamide], the “toxicity on normal cells (RPE)” value in data set [1] (concentration of therapeutic relevance (2 μM), epithelial system) was “no toxicity was observed on the normal cells”. Moreover, the GI50 in data set [5] (DU-145, read-out: GI50, DU-145) came out at 360 nM; in data set [6] (NCI-H23, read-out: GI50, NCI-H23), 780 nM; in [7], 2000 nM; in data set [10] (IGROV-1, read-out: GI50, IGROV-1) it was 570 nM; in data set [11] it was 350 nM; in data set [12] it was 20 nM. The GI50 in [13] (SF-539, read-out: GI50, SF-539) is 1000 nM; in [4] (read-out: GI50 values as low as), at least 20 nM; in [4] (read-out: average GI50), 850 nM. The “sensitivity of differentiated and undifferentiated PC-12 cells” value in data set [2] was “behaved like the HDAC control HC-1”. Besides, the “neurotoxic effects, SH-SY5Y viability” value in data set [3] (concentrations of therapeutic relevance (2.32 μM)) was “no neurotoxic effects”. Moreover, in data set [8], the “toxic effects on normal cells (WI-38)” value was “no toxic effects on normal cells”. In addition, the “cytotoxicity profile in the NCI-60 screen” value in data set [9] is “best cytotoxicity profile”. The “time from initiation of ferroptosis until most/all cells were dead” value in the data set with NCI-H522 cells was at most 2 h. Further, the “time of initiation of ferroptosis after treatment” value in the data set with NCI-H522 cells came out at 8 h. In data set [14], the “lipid peroxide levels (oxidized C11-BODIPY 581/591)” value is given as “increased levels of lipid peroxides”.

On to `C#Cc1nc(/C=C\CCCCCC(=O)NO)cs1` [HY-2, (Z)-8-(2-ethynylthiazol-4-yl)-N-hydroxyoct-7-enamide], for which the results for the IC50 in data set [15] and in data set [16] were 1070 nM and 1190 nM, respectively. Further, the GI50 in data set [4] (read-out: average GI50) stood at 2180 nM.

For the compound `C#Cc1nc(/C=C/CCCCCC(=O)NO)cs1` [HY-3, (E)-8-(2-ethynylthiazol-4-yl)-N-hydroxyoct-7-enamide], the values for the IC50 in data set [15] and in [16] were 1590 nM and 4960 nM, respectively. Further, the concentration for 50% growth inhibition (GI50) in [4] (read-out: average GI50) was determined as 3390 nM.

As to `C#Cc1nc(/C=C/C=C/C(=O)NO)cs1` [HY-4, (2E,4E)-5-(2-ethynylthiazol-4-yl)-N-hydroxypenta-2,4-dienamide], in data set [3], the “effect on neuronal cells (neurotoxicity)” value is recorded as “not showing attenuated neurotoxicity”. Besides, in [9], the “cytotoxicity profile in the NCI-60 screen” value is “worst cytotoxicity profile”.

For `C#Cc1nc(/C=C/C(=O)NO)cs1` [HY-5, (E)-3-(2-ethynylthiazol-4-yl)-N-hydroxyacrylamide], in [17], the “tubulin hyperacetylation at 5 μM” value is “tubulin hyperacetylation”. In addition, the GI50 in [4] (read-out: average GI50) came out at 2470 nM. In addition, the “H3 hyperacetylation at 5 μM” value in [18] is listed as “did not show any H3 hyperacetylation”.

With `COC(=O)CCCCCCNC(=O)c1csc(Br)n1` [NC-1, Methyl 7-(2-bromothiazole-4-carboxamido)heptanoate], the “effect on neuronal cells (neurotoxicity)” value in [3] is “no effect”.

Take `O=C(CCCCCCC(=O)Nc1ccccc1)NO` [SAHA]: the GI50 in data set [19] was found to be 2000 nM; in data set [5] (DU-145, five dose assay, read-out: GI50, DU-145), 1250 nM; in [6] (NCI-H23, five dose assay, read-out: GI50, NCI-H23), 2000 nM; in data set [7] (five dose assay), 1580 nM; in [10] (IGROV-1, five dose assay, read-out: GI50, IGROV-1), 2000 nM; in data set [12] (five dose assay) it was 1250 nM. The GI50 in [13] (SF-539, five dose assay, read-out: GI50, SF-539) stood at 2000 nM; in [4] (five dose assay, mean over approximately sixty cell lines, read-out: average GI50) it was 1210 nM. Also, the “Growth %, DU-145 (NCI public data base)” value in [20] was 3.5%. In addition, the “Growth %, NCI-H23 (NCI public data base)” value in data set [21] is given as 3.30%. Further, in the data set with NCI-H522 cells (SAHA 5 μM), the “time after treatment at which cells were still alive” value is at least 60 h.
